Type in all cases: cell-based
One experiment deals with T1, human V2R (Homo sapiens, UniProt P30518).
T1 construct: The human vasopressin receptor isoform 2 (V2R) cDNA cloned in pUC18 was recloned into a pEF2 vector to prepare pEFhV2R; expressed in transfected cells; host or cells: CHO cells, transient transfection with FuGENE6, then frozen
Briefly: Detection of AVP and V2R antagonist by desensitization (calcium-containing medium, addition of AVP, then forskolin). From the text: This method utilizes the desensitization of the cAMP dependent calcium channel to detect the activity of a V2R antagonist. […] In this state, the addition of forskolin that activates adenylate cyclase forms cAMP, which in turn activates the cAMP dependent calcium channel (e.g., CNG calcium). Thus, the calcium sensitive protein emits luminescence. […] In this state, the subsequent addition of […] desensitizes the once activated cAMP dependent calcium channel, which is no longer activated by the addition of forskolin.
1 ml (3×10^6 cells/ml) of the frozen cells prepared in 1 was thawed in a warm bath and suspended in 10 mL of a washing buffer. The suspension was centrifuged at 1000 rpm for 5 minutes. 12 mL of a culture buffer was added to the obtained precipitate, and 6 μL of 4 mM ViviRen was added thereto. The mixture was seeded at 50 μL/well into a 96-well plate. […] Subsequently, 10^−4 M forskolin was further added thereto at 50 μL/well, and the amount of luminescence was measured using a luminometer (FIG. 16).

For experiment [1], the target named is T2, human GLP-1 receptor (Homo sapiens, UniProt P43220, L260F).
T2 construct: The human GLP-1 receptor (GLP-1R) cDNA cloned in pUC18 was recloned into a pCIneo vector to prepare pCIneoGLP-1R; expressed in transfected cells; host or cells: CHO cell lines, transient transfection with FuGENE6, then frozen
Briefly: Aequorin luminescence in frozen CHO cell lines expressing human GLP-1 receptor, modified CNG channel and modified aequorin. As to conditions: even at a concentration 1 million times higher compared with the active forms of GLP-1; FIG. 24. The method, then:
1 ml (3×10^6 cells/ml) of the frozen cells prepared in 1 was thawed in a warm bath and suspended in 10 mL of a washing buffer.
1 ml (3×10^6 cells/ml) of the frozen cells prepared in 1 was thawed in a warm bath and suspended in 10 mL of a washing buffer. The suspension was centrifuged at 1000 rpm for 5 minutes. 12 mL of a culture buffer was added to the obtained precipitate, and 6 μL of 4 mM ViviRen was added thereto.

Experiment [2] has as its target T2, human GLP-1 receptor. Description: GLP-1 antagonist activity in CHO cells expressing human GLP-1 receptor, GLP-1 added after culture. As to conditions: 3 hours culture, then 10^-11 M GLP-1; FIG. 27. The method, then: Next, the activity of a GLP-1 antagonist was measured. 1 ml (3×10^6 cells/ml) of the frozen cells prepared in 1 was thawed in a warm bath and suspended in 10 mL of a washing buffer. The suspension was centrifuged at 1000 rpm for 5 minutes. 12 mL of a culture buffer was added to the obtained precipitate, and 6 μL of 4 mM ViviRen was added thereto. The mixture was seeded at 90 μL/well into a 96-well plate.
Exendin-4 (9-39) was added thereto at 10 μL/well, and the cells were cultured for 3 hours. 10^−11 M GLP-1 was added thereto at 10 μL/well, and the amount of luminescence was measured using a luminometer.

The text below walks through data of patent US9316588B2, “Bioassay method for detecting physiologically active substance” (OTSUKA PHARMACEUTICAL CO., LTD., priority 2010, dated 2016).

T2 sequence (P43220 24-463 L260F): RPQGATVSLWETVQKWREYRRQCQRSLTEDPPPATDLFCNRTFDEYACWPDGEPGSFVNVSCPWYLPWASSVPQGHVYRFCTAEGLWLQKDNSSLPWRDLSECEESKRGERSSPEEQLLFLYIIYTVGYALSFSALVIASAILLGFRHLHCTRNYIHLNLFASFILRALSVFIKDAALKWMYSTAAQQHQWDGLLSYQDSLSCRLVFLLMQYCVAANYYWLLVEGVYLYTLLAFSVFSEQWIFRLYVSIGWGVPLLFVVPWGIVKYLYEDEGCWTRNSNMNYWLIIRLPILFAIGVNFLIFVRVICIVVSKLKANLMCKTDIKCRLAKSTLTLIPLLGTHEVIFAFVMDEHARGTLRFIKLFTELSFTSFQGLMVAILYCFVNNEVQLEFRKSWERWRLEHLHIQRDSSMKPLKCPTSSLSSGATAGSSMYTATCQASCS
T1 sequence (P30518 1-309 isoform P30518-2): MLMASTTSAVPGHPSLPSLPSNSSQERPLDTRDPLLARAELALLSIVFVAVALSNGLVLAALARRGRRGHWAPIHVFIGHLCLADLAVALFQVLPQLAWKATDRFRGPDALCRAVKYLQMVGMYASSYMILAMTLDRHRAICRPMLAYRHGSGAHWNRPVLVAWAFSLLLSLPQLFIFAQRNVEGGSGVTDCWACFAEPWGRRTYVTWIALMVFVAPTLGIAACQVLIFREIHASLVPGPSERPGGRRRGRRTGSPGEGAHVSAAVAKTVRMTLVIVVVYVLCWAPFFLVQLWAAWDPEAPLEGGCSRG

As for `Cc1ccccc1C(=O)Nc1ccc(C(=O)N2CCCC(O)c3cc(Cl)ccc32)c(C)c1` (stereo not drawn) [OPC-41061], the “luminescence of forskolin after antagonist and AVP” value on human V2R (10^-7 M AVP, then 10^-4 M forskolin, FIG. 16) is “the luminescence of forskolin was detected in a concentration dependent manner”. The “inhibition of the action of added AVP (amount of luminescence)” value at human V2R (cells cultured 3 hours with compound in calcium-containing medium, then 10^-7 M AVP, FIG. 14) is on record as “inhibited the action of added AVP in a concentration dependent manner”.

As for GIP: incretin acting on other receptors, the “reactivity of the kit” value with human GLP-1 receptor [1] is reported as “hardly reacted”.

As to GLP-1 (9-36 amide), the “reactivity of the kit” value at human GLP-1 receptor [1] is reported as “hardly reacted”.

For “GLP-2: incretin acting on other receptors”, in the experiment with human GLP-1 receptor [1], the “reactivity of the kit” value is listed as “hardly reacted”.

Consider “exendin-4 (9-39): GLP-1 receptor antagonist”, for which, in the experiment with human GLP-1 receptor [2], the “inhibition of the agonistic action of added GLP-1” value was “inhibited the agonistic action of added GLP-1 in a concentration dependent manner”.
